Laboratory results from US7842682B2, “Boronated metal-phthalocyanines, process for their preparation, pharmaceutical compositions comprising them and use thereof” (L. Molteni & C. Dei Fratelli Alitti, priority 2003, dated 2010).
Entries after “also recorded” stand apart in the source; their conditions may differ.

Assays:
[1] = tested on: B16F1 transplanted pigmented melanoma; test: BNCT: rate of tumour growth after thermal neutron irradiation in melanoma bearing mice; assay type: in vivo, C57/BL6 mice
Procedure: FIG. 7: Rate of tumour growth as a function of post-irradiation time in C57/BL6 mice bearing a B16F1 transplanted pigmented melanoma which have been intravenously injected with 6.0 mg/kg boronated phthalocyanine prepared according to Example 23, as a DOPC liposomal preparation, and at 24 hours from injection were irradiated by thermal neutrons for 20 and 30 min. The growth profile of the radiosensitized pigmented melanoma is compared with that obtained for untreated control mice.

[2] = tested on: melanocytes deriving from murine pigmented melanoma B16-F1; test: Photosensitization of B16-F1 melanocytes, survival by Trypan Blue exclusion test; assay type: cell-based; conditions: 24 hrs incubation, DPPC or DOPC liposomal preparation 7 microM; red light 600-750 nm, 50 mW/cm^2; irradiation times as low as 10 min
Procedure: Irradiations were performed as described above for FIG. 1.
Melanocytes were incubated (24 hrs) with a DPCC or DOPC liposomal phthalocyanine preparation (7 microM). After incubation, the cells were washed with PBS and irradiated with red visible light (600-750 nm, 50 mW/cm^2). Survival was determined after the photo-treatment (18-24 hrs) by the Trypan Blue exclusion test. Results for delivered phthalocyanine are summarised in FIG. 3A (DPPC liposomes) and in FIG. 3B (DOPC liposomes).

[3] = tested on: B16F1 transplanted pigmented melanoma; test: PDT: rate of tumour growth after red light irradiation in melanoma bearing mice; assay type: in vivo, C57/BL6 mice
Procedure: The tumour response is most evident if the irradiations are carried out at 3 h after injection of the photosensitizer.

[4] = Photostability (photobleaching) under visible light irradiation, spectrophotometric; assay type: physicochemical; conditions: irradiated as for FIG. 1; compared with not-boronated (unsubstituted zinc) phthalocyanine
Text: FIG. 2A: Absorption spectrum and determination of the degraded unsubstituted zinc phthalocyanine, irradiated according to the experimental conditions described above for FIG. 1.
It is known that most phthalocyanines are subjected to a more or less extensive photobleaching under visible light irradiation. It is therefore important to define if the rate constant of this process is too fast, so that the active principle is photodegraded at a high rate, which could negatively interfere with the photosensitization of cells or other substrates. […] Results obtained with a not substituted phthalocyanine are reported. In FIG. 2A as a reference. From comparison of the plots shown in FIGS. 2A and 2B it may be concluded that • 1- the boron substituted molecules prepared according to the present invention are as useful photosensitizers able to absorb red visible light as the unsubstituted ones; • 2- the photobleaching kinetics undergoes only limited changes when the phthalocyanine structure is modified by introduction of boronated groups. […] Assessment of Activity on Biological Substrates

[5] = Pharmacokinetics and tissue distribution in B16-F1 pigmented melanoma bearing mice; assay type: in vivo, C57/BL6 mice
Procedure: Toward this aim, once tumours had reached the volumes of […], the boronated phthalocyanine as DPPC liposomal preparation (0.75 mg/kg) or as a DOPC liposomal preparation (3 mg/kg) was systemically administered. […]

In the case of “1,8(11),15(18),22(25)-tetrakis-{[4-(^10B-o-carboran-1-yl)methyl]phenoxy}phthalocyaninate zinc(II) [Example 23]”, the “tumour necrosis after BNCT” value ([1]; 6.0 mg/kg i.v. in DOPC liposomes, thermal neutrons at 24 h) is reported as “extensive tumour necrosis”, the “tumour growth after BNCT” value ([1]; 6.0 mg/kg i.v. in DOPC liposomes, thermal neutrons at 24 h for 20 and 30 min, versus untreated control mice) is reported as “significant delay in tumour growth” and the “amount of phthalocyanine accumulated in the tumour” value ([1]; 24 h after i.v. injection in DOPC liposomes) is reported as “sufficient to achieve the BNCT effect”.

In the case of “1,8(11),15(18),22(25)-tetrakis-{[4-(^11B-o-carboran-1-yl)methyl]phenoxy}-phthalocyaninate zinc(II) [Example 21]”, the “cell survival after photo-treatment” value [2] is reported as “almost complete cell mortality”, the “rate of tumour growth after PDT” value ([3]; 6.0 mg/kg i.v., DOPC liposomal preparation, 670 nm, 200 mW/cm^2, 250 J/cm^2) is reported as “significant delay in the rate of tumour growth” and the “tumour response by interval between injection and irradiation” value ([3]; irradiations carried out at 3 h after injection of the photosensitizer) is reported as “most evident”. The photobleaching [4] was “more extensive photobleaching”, the clearance from plasma ([5]; DPPC liposomes 0.75 mg/kg or DOPC liposomes 3 mg/kg, systemically administered) was “rapid with no product residue at 24 hrs after the treatment” and the “clearance from liver and spleen” value ([5]; delivered via DOPC liposomes, after 1 week from injection) was “largely cleared”. For the same substance, the “recovery from liver and spleen” value ([5]; delivered via liposomes) was “large recovery; also recorded: accumulated in large amounts”, the “amount found in the skin (peritumoural tissue)” value ([5]; mouse, in vivo) was “small amounts” and the “recovery from the kidneys” value ([5]; mouse, in vivo) was “Very limited amounts”.
